Laboratory results published in patent US9261498B2, “Biomarker for sensitivity to mTOR inhibitor therapy in kidney cancer” (The Regents of the University of California, priority 2005, dated 2016).

Legend:
ACHN-VHL shRNA cells = assay: In vitro growth (cell counts), VHL knockdown cells; assay type: cell-based, human
Procedure: (§1) FIGS. 1A-1E. Effects of VHL knockdown on sensitivity to CCI-779. (a) Immunoblotting of lysates derived from shRNA and control (empty vector, V) in SN12C, using antibodies against VHL (both isoforms detected), HIF-1α, HIF-2α, GLUT-1, CA-IX and β-Actin (as a loading control). (b) SN12C-CSCG and SN12C-VHLshRNA cells (1×10^5) were cultured in 10% serum rich media, in the presence of vehicle, 1 or 10 nM of CCI-779 for 5 days. Cell growth was measured by cell counts (n=3). […] (c) SN12C-CSCG (C1) and SN12C-CSCG shVHL RNA (C2) cells were injected into SCID mice at a dose of 1×10^6 cells per mouse (n=30). When tumor volume reached 150 mm^3, mice were randomized to daily treatment with vehicle or 0.1 mg/kg of CCI-779. The change in tumor volume is plotted. Phosphorylated-S6 protein in SN12C-CSCG and SN12C-VHL shRNA xenograft tumors treated with vehicle or 0.1 mg/kg of CCI-779 was measured by immunoblot C3 and C4). Equal loading verified by actin immunoblots. […] (e) Schematic of shRNA-expressing lentivirus directed against VHL in pCSCG vector.
(§2) For in vitro experiments, cells (5×10^4) were plated and treated with 1 and 10 nM CCI-779 (kind gift of J. Gibbons, Wyeth) or vehicle (ethanol). On day 5-post treatment, cells were trypsinized, resuspended in DMEM with 10% FBS and counted using the VI CELL counter (Beckman Coulter), according to the manufacturer's instructions. Cell counts were done in triplicate and repeated on at least 3 independent occasions. In vivo tumorigenicity was measured by injection of 5×10^5 SN12C-CSCG, ACHN-CSCG, SN12C-CSCG-VHLshRNAi, ACHN-CSCG-VHLshRNAi, SN12C-CSCG-VHLshRNAi-pBABE, SN12C-CSCG-VHLshRNAi-pBABE-HA-HIF-2α (P405A; P531A) cells in 100 μl of Matrigel (Collaborative Biomedical) subcutaneously into the flanks of SCID mice. Tumor size were measured weekly in three dimensions using calipers as described (Klein, K. A. et al. Nat Med 3, 402-8 (1997)). When tumors reached 200 mm^3, all tumors received 0.1 mg/kg/daily of CCI-779 or vehicle. All mouse experiments were performed in compliance with the guidelines of the Animal Research Committee of the University of California at Los Angeles.
(§3) SN12C and ACHN (NCI60, DTP) were maintained in Dulbecco's modified Eagle's Medium (DMEM) supplemented with 10% FBS. […] On day 5-post treatment, cells were trypsinized, resuspended in DMEM with 10% FBS and counted using the VI-Cell XR automated cell viability analyzer (Beckmann Coulter). […] In vivo tumorigenicity was measured by injection of 5×10^5 SN12C-CSCG, ACHN-CSCG, SN12C-CSCG-VHL shRNA, ACHN-CSCG-VHL shRNA, SN12C-CSCG-VHL shRNA-pBABE, SN12C-CSCG-VHL shRNA-pBABE-HA-HIF-2α (P405A; P531A) cells in 100 μl of Matrigel (Collaborative Biomedical) subcutaneously into the flanks of SCID mice. Tumor size were measured weekly in three dimensions using calipers as described. […]

SN12C-VHL shRNA cells = assay: In vitro growth (cell counts), VHL knockdown cells; assay type: cell-based, human
Procedure: as §1, §2, §3

[1] = dose-dependent, 1 and 10 nM CCI-779, day 5

## CO[C@H]1C[C@@H]2CC[C@@H](C)[C@@](O)(O2)C(=O)C(=O)N2CCCC[C@H]2C(=O)O[C@H]([C@H](C)C[C@@H]2CC[C@@H](OC(=O)C(C)(CO)CO)[C@H](OC)C2)CC(=O)[C@H](C)/C=C(\C)[C@@H](O)[C@@H](OC)C(=O)[C@H](C)C[C@H](C)/C=C/C=C/C=C/1C [CCI-779]
ACHN-VHL shRNA cells; FIG. 1D
  sensitivity to CCI-779 after stable VHL knockdown: enhanced sensitivity
ACHN-VHL shRNA cells; [1]
  reduction of cell growth: 70%
SN12C-VHL shRNA cells; 1 and 10 nM, in vitro
  sensitivity to CCI-779 in contrast to the parental cells: increased sensitivity
SN12C-VHL shRNA cells; [1]
  reduction of cell growth: 70%
